Data taken from the supplement of paper PMC10307832.

Key:
Test in all cases: relative viability (nuclei count vs DMSO), 5 days (fraction); higher = more cells survive
Halofuginone + Lapatinib = compound: O=C(C[C@H]1NCCC[C@@H]1O)Cn1cnc2cc(Br)c(Cl)cc2c1=O (racemic) [Halofuginone] + CS(=O)(=O)CCNCc1ccc(-c2ccc3ncnc(Nc4ccc(OCc5cccc(F)c5)c(Cl)c4)c3c2)o1 [Lapatinib] (partner 2 µM)
Summary of the method: (§1)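 Relative viability is defined as nuclei in treated wells over nuclei in vehicle wells. Duplicate plates were run and medians reported. Lung cancer cell lines in 1536-well plates were dosed by pin tool one day after seeding, with one drug or with a fixed anchor-drug dose plus five library-drug doses (not always all listed) in √10 steps, and nuclei were counted after 5 days.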

[1] = compound: O=C(C[C@H]1NCCC[C@@H]1O)Cn1cnc2cc(Br)c(Cl)cc2c1=O (racemic) [Halofuginone] + CC(C)C[C@H](NC(=O)[C@H](Cc1ccccc1)NC(=O)c1cnccn1)B(O)O [Bortezomib] (partner 0.002 µM)
Summary of the method: as §1

Decitabine + Vorinostat = compound: Nc1ncn([C@H]2C[C@H](O)[C@@H](CO)O2)c(=O)n1 [Decitabine] + O=C(CCCCCCC(=O)Nc1ccccc1)NO [Vorinostat] (partner 1 µM)
Summary of the method: as §1

Decitabine + Trametinib = compound: Nc1ncn([C@H]2C[C@H](O)[C@@H](CO)O2)c(=O)n1 [Decitabine] + CC(=O)Nc1cccc(-n2c(=O)n(C3CC3)c(=O)c3c(Nc4ccc(I)cc4F)n(C)c(=O)c(C)c32)c1 [Trametinib] (partner 0.02 µM)
Summary of the method: as §1

Cell Line	relative viability (Halofuginone + Lapatinib; first compound 0.001 µM)	relative viability (Halofuginone + Lapatinib; first compound 0.003162 µM)	relative viability (Halofuginone + Lapatinib; first compound 0.01 µM)	relative viability (Halofuginone + Lapatinib; first compound 0.03162 µM)	relative viability (Halofuginone + Lapatinib; first compound 0.1 µM)	relative viability ([1]; first compound 0.001 µM)	relative viability ([1]; first compound 0.003162 µM)	relative viability ([1]; first compound 0.01 µM)	relative viability ([1]; first compound 0.03162 µM)	relative viability ([1]; first compound 0.1 µM)	relative viability (Decitabine + Vorinostat; first compound 0.1265 µM)	relative viability (Decitabine + Vorinostat; first compound 0.4 µM)	relative viability (Decitabine + Vorinostat; first compound 1.265 µM)	relative viability (Decitabine + Vorinostat; first compound 4 µM)	relative viability (Decitabine + Trametinib; first compound 0.04 µM)	relative viability (Decitabine + Trametinib; first compound 0.1265 µM)	relative viability (Decitabine + Trametinib; first compound 0.4 µM)	relative viability (Decitabine + Trametinib; first compound 1.265 µM)	relative viability (Decitabine + Trametinib; first compound 4 µM)	relative viability (Decitabine + Vorinostat; first compound 0.04 µM)
A549	0.993	0.973	0.928	0.603	0.203	–	–	–	–	–	–	–	–	–	–	–	–	–	–	–
ABC-1	1.22	1.32	1.1	1.06	0.912	0.255	0.328	0.24	0.367	0.279	0.842	0.964	0.888	0.795	–	–	–	–	–	–
Calu-6	1.18	1	1.05	0.689	0.176	1.04	1.17	0.974	0.452	0.137	–	–	–	–	–	–	–	–	–	–
ChaGo-K-1	–	–	–	–	–	0.996	0.875	0.948	1.05	0.91	0.684	0.402	0.39	0.374	0.729	0.628	0.5	0.434	0.62	0.771
EBC-1	0.223	0.247	0.233	0.266	0.245	0.507	0.616	0.458	0.325	0.135	–	–	–	–	–	–	–	–	–	–
IA-LM	0.85	0.781	0.579	0.518	0.0907	0.894	0.741	0.664	0.533	0.0776	0.403	0.393	0.236	0.164	–	–	–	–	–	0.853
LCLC-103H	–	–	–	–	–	1.06	0.9	1.1	0.956	1.03	0.81	0.628	0.511	0.561	0.659	0.714	0.771	0.623	0.688	0.653
LK-2	1.01	0.801	0.951	0.891	0.778	–	–	–	–	–	0.268	0.285	0.204	0.208	0.692	0.674	0.605	0.435	0.371	0.229
NCI-H358	0.56	0.432	0.376	0.282	0.232	–	–	–	–	–	0.209	0.14	0.0806	0.0904	0.132	0.124	0.137	0.121	0.126	0.257
NCI-H441	–	–	–	–	–	0.456	0.457	0.6	0.491	0.433	0.281	0.249	0.169	0.181	0.317	0.281	0.255	0.183	0.206	0.211
NCI-H522	–	–	–	–	–	–	–	–	–	–	0.684	0.562	0.505	0.54	0.718	0.714	0.547	0.537	0.513	0.898
NCI-H1299	0.995	1	0.916	0.941	0.65	1.08	1.02	1	0.986	0.851	–	–	–	–	–	–	–	–	–	–
